Results: patent US8399482B2, “6-substituted isoquinolines and isoquinolinones” (Sanofi, priority 2008, dated 2013)

Key:
Protein Kinase G = conditions: Rho kinase inhibitor, background statement; cited from earlier work
[1] = biological target: T1, human recombinant ROCK II (Homo sapiens, UniProt O75116); assay: Determination of Rho kinase inhibition (ROCK II, Caliper peptide phosphorylation assay); assay type: biochemical; conditions: respective form (salt or free base) as obtained in the examples, 60 min at 32° C.
T1 construct: recombinant human ROCK-II residues 11-552; His6 (N); purchased Millipore GmbH, Schwalbach, Germany
How it was run: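 Enzyme: active N-terminal His6-tagged recombinant human ROCK-II, residues 11-552. Substrate: a fluorescein-labelled peptide, with ATP. IC50 values were determined.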

recombinant human PKA = biological target: T2, recombinant human PKA (Homo sapiens, UniProt P17612); assay: Determination of Protein Kinase A inhibition (selectivity); assay type: biochemical; conditions: from IC50 values
T2 construct: recombinant human PKA (residues 1-351, N-terminal His-tag); His-tag (N); purchased Invitrogen, Karlsruhe, Germany
How it was run: (§1)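 Full-length His-tagged PKG1-beta and His-tagged PKA (residues 1-351) assayed in Tris-HCl pH 7.4 with fluorescein-labelled peptide and ATP (diluted to 3 μM and 120 μM before mixing), 60 min at 32° C. EDTA-stopped; substrate phosphorylation detected by Caliper mobility-shift separation, giving IC50 values.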

[2] = biological target: T3, recombinant human PKG1-beta (Homo sapiens, UniProt Q13976); assay: Determination of Protein Kinase G inhibition (selectivity); assay type: biochemical; conditions: from IC50 values
T3 construct: PKG1-beta (full-length, with N-terminal His-tag); His-tag (N); purchased Millipore GmbH, Schwalbach, Germany
T3 sequence (Q13976 1-686 isoform Q13976-2): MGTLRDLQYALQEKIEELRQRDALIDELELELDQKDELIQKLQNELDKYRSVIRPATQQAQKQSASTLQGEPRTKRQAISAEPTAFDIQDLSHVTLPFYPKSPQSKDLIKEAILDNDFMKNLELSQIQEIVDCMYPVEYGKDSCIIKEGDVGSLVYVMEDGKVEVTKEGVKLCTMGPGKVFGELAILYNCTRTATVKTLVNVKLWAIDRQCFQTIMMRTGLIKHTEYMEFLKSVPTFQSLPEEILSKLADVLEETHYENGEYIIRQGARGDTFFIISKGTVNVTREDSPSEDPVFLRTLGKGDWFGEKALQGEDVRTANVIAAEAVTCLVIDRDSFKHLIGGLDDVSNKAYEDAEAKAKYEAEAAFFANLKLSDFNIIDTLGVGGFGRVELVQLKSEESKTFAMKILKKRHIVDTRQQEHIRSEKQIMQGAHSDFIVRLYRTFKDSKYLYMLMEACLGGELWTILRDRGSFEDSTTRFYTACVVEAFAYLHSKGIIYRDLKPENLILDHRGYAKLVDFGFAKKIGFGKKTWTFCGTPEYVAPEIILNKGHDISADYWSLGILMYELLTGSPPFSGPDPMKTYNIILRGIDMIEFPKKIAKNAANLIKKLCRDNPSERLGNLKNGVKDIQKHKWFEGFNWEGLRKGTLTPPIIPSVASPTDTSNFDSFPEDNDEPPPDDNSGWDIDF
How it was run: as §1

T1 sequence (O75116 11-552): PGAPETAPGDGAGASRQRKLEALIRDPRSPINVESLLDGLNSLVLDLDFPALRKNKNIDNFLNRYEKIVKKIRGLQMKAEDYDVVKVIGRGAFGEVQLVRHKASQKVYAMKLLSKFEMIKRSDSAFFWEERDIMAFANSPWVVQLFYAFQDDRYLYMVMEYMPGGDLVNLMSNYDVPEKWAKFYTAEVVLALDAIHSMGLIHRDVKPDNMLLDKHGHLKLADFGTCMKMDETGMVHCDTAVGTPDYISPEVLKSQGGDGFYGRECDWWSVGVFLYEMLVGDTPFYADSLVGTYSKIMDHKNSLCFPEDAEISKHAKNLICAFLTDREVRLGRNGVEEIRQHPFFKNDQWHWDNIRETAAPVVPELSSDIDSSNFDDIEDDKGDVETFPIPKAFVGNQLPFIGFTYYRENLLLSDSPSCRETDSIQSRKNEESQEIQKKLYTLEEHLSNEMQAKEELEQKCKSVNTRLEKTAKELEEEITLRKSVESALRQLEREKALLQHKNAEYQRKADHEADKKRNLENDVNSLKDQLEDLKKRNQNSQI

Row | SMILES | selectivity against Protein Kinase G (Protein Kinase G) | IC50 [1] | Selectivity against PKA (recombinant human PKA) | Selectivity against PKG [2]
1 | C[C@@H](N)[C@H]1CC[C@H](C(=O)Nc2ccncc2)CC1 [Example Y-27632] | 20 fold | – | – | –
2 | CCC(N)C1(Cc2ccccc2)CCC(Oc2cc3cc[nH]c(=O)c3cc2Cl)CC1 (single isomer, unassigned) [Example 30, 6-[4-(1-Amino-propyl)-4-benzyl-cyclohexyloxy]-7-chloro-2H-isoquinolin-1-one] | – | 10 to 100 nM | >300 fold | >10 fold
3 | CCCC[C@]1(C(N)CC)CC[C@@H](Oc2cc3cc[nH]c(=O)c3cc2Cl)CC1 (stereo partly drawn) [Example 38, cis-6-[4-(1-Amino-propyl)-4-butyl-cyclohexyloxy]-7-chloro-2H-isoquinolin-1-one] | – | ≤ 10 nM | >1000 fold | >300 fold
4 | C[C@]1(C(N)C2CC2)CC[C@@H](Oc2cc3cc[nH]c(=O)c3cc2Cl)CC1 (stereo partly drawn) [Example 69, cis-6-[4-(Amino-cyclopropyl-methyl)-4-methyl-cyclohexyloxy]-7-chloro-2H-isoquinolin-1-one] | – | ≤ 10 nM | >1000 fold | >300 fold
5 | CC[C@]1(C(N)C2CC2)CC[C@@H](Oc2cc3cc[nH]c(=O)c3cc2Cl)CC1 (stereo partly drawn) [Example 70, cis-6-[4-(Amino-cyclopropyl-methyl)-4-ethyl-cyclohexyloxy]-7-chloro-2H-isoquinolin-1-one] | – | ≤ 10 nM | >1000 fold | >1000 fold
6 | CCC(N)C1(C(C)C)CCC(Oc2cc3cc[nH]c(=O)c3cc2Cl)CC1 (single isomer, unassigned) [Example 9, 6-[4-(1-Amino-propyl)-4-isopropyl-cyclohexyloxy]-7-chloro-2H-isoquinolin-1-one] | – | 10 to 100 nM | >10 fold | >10 fold
7 | CCC[C@]1(C(C)N)CC[C@@H](Oc2cc3cc[nH]c(=O)c3cc2Cl)CC1 (stereo partly drawn) [Example 77, cis-6-[4-(1-Amino-ethyl)-4-propyl-cyclohexyloxy]-7-chloro-2H-isoquinolin-1-one] | – | ≤ 10 nM | >1000 fold | >300 fold
8 | NC(C1CC1)C1(CC2CC2)CCC(Oc2cc3cc[nH]c(=O)c3cc2Cl)CC1 (single isomer, unassigned) [Example 16, 6-[4-(Amino-cyclopropyl-methyl)-4-cyclopropylmethyl-cyclohexyloxy]-7-chloro-2H-isoquinolin-1-one] | – | ≤ 10 nM | >300 fold | >300 fold
9 | CC(N)C1(C2CCC2)CCC(Oc2cc3cc[nH]c(=O)c3cc2Cl)CC1 (single isomer, unassigned) [Example 21, 6-[4-(1-Amino-ethyl)-4-cyclobutyl-cyclohexyloxy]-7-chloro-2H-isoquinolin-1-one] | – | 10 to 100 nM | >300 fold | >100 fold
10 | CCC(N)[C@]1(C2CCOCC2)CC[C@H](Oc2cc3cc[nH]c(=O)c3cc2Cl)CC1 (single isomer, unassigned) [Example 2, 6-[4-(1-Aminopropyl)-4-(tetrahydropyran-4-yl)-cyclohexyloxy]-7-chloro-2H-isoquinolin-1-one] | – | 100 to 1000 nM | >10 fold | >1 fold
11 | CC(C)C1(C(N)c2cncs2)CCC(Oc2cc3cc[nH]c(=O)c3cc2Cl)CC1 (single isomer, unassigned) [Example 47, 6-[4-(Amino-thiazol-5-yl-methyl)-4-isopropyl-cyclohexyl-oxy]-7-chloro-2H-isoquinolin-1-one] | – | 10 to 100 nM | >300 fold | >300 fold
12 | CCC1(C(C)N)CCC(Oc2cc3cc[nH]c(=O)c3cc2Cl)CC1 (single isomer, unassigned) [Example 4, 6-[4-(1-Amino-ethyl)-4-ethyl-cyclohexyloxy]-7-chloro-2H-isoquinolin-1-one] | – | 10 to 100 nM | >300 fold | >100 fold
13 | CC(N)C1(CC2CC2)CCC(Oc2cc3cc[nH]c(=O)c3cc2Cl)CC1 (single isomer, unassigned) [Example 10, 6-[4-(1-Amino-ethyl)-4-cyclopropylmethyl-cyclohexyloxy]-7-chloro-2H-isoquinolin-1-one] | – | ≤ 10 nM | >1000 fold | >300 fold
14 | CCC(N)[C@]1(C(C)C)CC[C@H](Oc2cc3c(F)c[nH]c(=O)c3cc2Cl)CC1 (stereo partly drawn) [Example 90, cis-6-[4-(1-Amino-propyl)-4-isopropyl-cyclohexyloxy]-7-chloro-4-fluoro-2H-isoquinolin-1-one] | – | 10 to 100 nM | >300 fold | >100 fold
15 | CCCC(N)C1(CC2CC2)CCC(Oc2cc3cc[nH]c(=O)c3cc2Cl)CC1 (single isomer, unassigned) [Example 15, 6-[4-(1-Amino-butyl)-4-cyclopropylmethyl-cyclohexyloxy]-7-chloro-2H-isoquinolin-1-one] | – | 10 to 100 nM | >10 fold | >10 fold
16 | NC(C1CC1)[C@]1(C2CC2)CC[C@H](Oc2cc3cc[nH]c(=O)c3cc2Cl)CC1 (stereo partly drawn) [Example 75, cis-6-[4-(Amino-cyclopropyl-methyl)-4-cyclopropyl-cyclohexyloxy]-7-chloro-2H-isoquinolin-1-one] | – | ≤ 10 nM | >1000 fold | >1000 fold
